# Test results published in patent EP0326331B1, “Substituted quinolines and cinnolines” (Dow AgroSciences LLC, priority 1988, dated 1989).
# Legend:
# Type in all cases: in vivo
# [1] = tested on: Erysiphe graminis tritici (powdery mildew); experiment: Test 1 greenhouse foliar spray screen, powdery mildew on wheat; conditions: Blumeria graminis, foliar, Test 1, foliar spray on wheat; disease control rating at 400 ppm / 100 ppm; read-out: POWD MDEW
# [2] = tested on: Pyricularia oryzae (rice blast); experiment: whole plant or invertebrate; conditions: Pyricularia oryzae, foliar, read-out: RICE BLAST, Test 1, foliar spray on rice; disease control rating at 400 ppm / 100 ppm
# [3] = tested on: Puccinia recondita tritici (leaf rust); experiment: Test 1 greenhouse foliar spray screen, leaf rust on wheat; conditions: Puccinia recondita, foliar, Test 1, foliar spray on wheat; disease control rating at 400 ppm / 100 ppm
# [4] = tested on: Botrytis cinerea (gray mold); experiment: Test 1 greenhouse foliar spray screen, gray mold on grape berries; conditions: Botrytis cinerea, foliar; Test 1, spray on grape berries; disease control rating at 400 ppm / 100 ppm
# [5] = tested on: Pseudoperonospora cubensis (downy mildew); experiment: Test 1 greenhouse foliar spray screen, downy mildew on squash
# [6] = tested on: Cercospora beticola (leaf spot); experiment: Test 1 greenhouse foliar spray screen, leaf spot on sugar beet; conditions: Cercospora beticola; Test 1, foliar spray on sugar beet; disease control rating at 400 ppm / 100 ppm
# [7] = tested on: Venturia inaequalis (apple scab); experiment: Test 1 greenhouse foliar spray screen, apple scab on apple seedling; conditions: Venturia inaequalis; Test 1, foliar spray on apple seedling; disease control rating at 400 ppm / 100 ppm; read-out: APPL SCAB
# [8] = tested on: Septoria tritici (leaf blotch); experiment: Test 1 greenhouse foliar spray screen, leaf blotch on wheat; conditions: Zymoseptoria tritici; Test 1, foliar spray on wheat; disease control rating at 400 ppm / 100 ppm; read-out: LEAF BLOT
# [9] = tested on: Erysiphe sp.; experiment: Field tests against plant pathogens; conditions: field test, crop sugar beet
# Description: Selected compounds were field tested against a variety of plant pathogens. […]
# [10] = tested on: southern armyworm (Spodopetra eridania Cramer); experiment: Mite/insect screen, SAW; conditions: Spodoptera eridania, foliar, percent mortality, foliar spray on squash, read-out: SAW RESULTS %
# Procedure, shortened: (§1)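 Compounds dissolved in 50:50 acetone/alcohol containing sulfonate/nonionic emulsifier blends, then diluted with water to the indicated concentrations. Leaves sprayed on both surfaces to runoff at 10 psi and dried one hour. Percent mortality scored after standard exposure periods.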
# [11] = tested on: Twospotted spider mites (Tetranychus urticae Koch); experiment: Mite/insect screen, SM
# Procedure, shortened: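 Activity is expressed as percent mortality at the indicated spray concentrations. Plants are sprayed to runoff on upper and lower leaf surfaces with aqueous dilutions of an acetone/alcohol emulsifiable formulation, then dried for one hour.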
# [12] = tested on: melon aphids (Aphis gossypii Glover); experiment: Mite/insect screen, MA; conditions: Aphis gossypii, foliar, percent mortality, foliar spray on squash, read-out: MA RESULTS %
# Procedure, shortened: as §1
# [13] = tested on: corn rootworm; experiment: Mite/insect screen, CRW; conditions: percent mortality, read-out: CRW RESULTS %
# Procedure, shortened: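 Compounds were dissolved in 50:50 acetone/alcohol containing sulfonate/nonionic emulsifier blends (23 g/L plus 13 g/L), then diluted with water to the test concentrations. Percent mortality was scored after standard exposure periods.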
# [14] = tested on: Dawson-hop aphid; experiment: Field trials against pest species; conditions: field trial, host hops
# Protocol: (§2) 4-[2-[4-(t-Butyl)phenyl]ethoxy]-8-fluoroquinoline (Example 221) was evaluated in a number of field trials. […]
# [15] = tested on: European red mite; experiment: Field trials against pest species; conditions: field trial, host apples
# Protocol: as §2
# [16] = tested on: apple aphid; experiment: Field trials against pest species; conditions: field trial, host apples
# Protocol: as §2
# [17] = tested on: apple rust mite; experiment: Field trials against pest species; conditions: field trial, host apples
# Protocol: as §2
# [18] = tested on: bean aphid; experiment: Field trials against pest species; conditions: field trial, host bean, faba broad
# Protocol: as §2
# [19] = tested on: cotton aphid; experiment: Field trials against pest species; conditions: field trial, host cotton
# Protocol: as §2
# [20] = tested on: grape leafhopper; experiment: Field trials against pest species; conditions: field trial, host grape (European)
# Protocol: as §2
# [21] = tested on: grape thrip; experiment: Field trials against pest species; conditions: field trial, host grape (European)
# Protocol: as §2
# [22] = tested on: green cloverworm; experiment: Field trials against pest species; conditions: field trial, host alfalfa (Lucerne)
# Protocol: as §2
# [23] = tested on: green peach aphid; experiment: Field trials against pest species; conditions: field trial
# Protocol: as §2
# [24] = tested on: greenhouse thrip; experiment: Field trials against pest species; conditions: field trial, host azaleas
# Protocol: as §2
# [25] = tested on: mites; experiment: Field trials against pest species; conditions: field trial, host apples
# Protocol: as §2
# [26] = tested on: pea aphid; experiment: Field trials against pest species; conditions: field trial
# Protocol: as §2
# [27] = tested on: potato leaf hopper; experiment: Field trials against pest species; conditions: field trial, host alfalfa (Lucerne)
# Protocol: as §2
# [28] = tested on: rosy apple aphid; experiment: Field trials against pest species; conditions: field trial, host apples
# Protocol: as §2
# [29] = tested on: tarnished plant bug; experiment: Field trials against pest species; conditions: field trial, host alfalfa (Lucerne)
# Protocol: as §2
# [30] = tested on: thrip; experiment: Field trials against pest species; conditions: field trial, host privet
# Protocol: as §2
# [31] = tested on: twospotted spider mite; experiment: Field trials against pest species; conditions: field trial, host broccoli
# Protocol: as §2
# [32] = tested on: wheat aphid; experiment: Field trials against pest species; conditions: field trial, host wheat
# Protocol: as §2
# [33] = tested on: white apple leafhopper; experiment: Field trials against pest species; conditions: field trial, host apples
# Protocol: as §2
# [34] = tested on: yellow hickory aphid; experiment: Field trials against pest species; conditions: field trial, host pecan nut
# Protocol: as §2
# [35] = summary statement in the description
smiles,measurement,setting,value
"CC(C)(C)c1ccc(CCOc2ccnc3c(F)cccc23)cc1 [Example 221, 4-[2-[4-(t-butyl)phenyl]ethoxy]-8-fluoroquinoline]",pest or weed control at 400 ppm,[1],20 to 89%
same,pest or weed control at 400 ppm,[2],0 to 19%
same,pest or weed control at 400 ppm,[3],90 to 100%
same,pest or weed control at 400 ppm,[4],0 to 19%
same,pest or weed control at 400 ppm,"[5]; Pseudoperonospora cubensis, foliar, Test 1, foliar spray on squash, disease control rating at 400 ppm / 100 ppm, read-out: DOWN MDEW",90 to 100%
same,activity against downy mildew,[5]; [35],particularly excellent activity
same,pest or weed control at 400 ppm,[6],90 to 100%
same,pest or weed control at 400 ppm,[7],20 to 89%
same,pest or weed control at 400 ppm,[8],90 to 100%
same,pathogens against which compounds of the invention showed activity,[9],Erysiphe sp.
same,mortality at 200 ppm,[10]; rate 200 ppm,0%
same,mortality at 400 ppm,[10]; rate 400 ppm,0%
same,mortality at 200 ppm,"[11]; Tetranychus urticae, foliar, percent mortality, rate 200 ppm, foliar spray on squash, read-out: SM RESULTS %",90%
same,mortality at 400 ppm,"[11]; Tetranychus urticae, foliar, percent mortality, rate 400 ppm, foliar spray on squash, read-out: SM RESULTS %",90%
same,activity as miticides,[11]; [35],particularly excellent activity
same,mortality at 200 ppm,[12]; rate 200 ppm,90%
same,mortality at 400 ppm,[12]; rate 400 ppm,80%
same,mortality at 12 ppm,[13]; CRW rate 12.00 ppm,40%
same,mortality at 24 ppm,[13]; CRW rate 24.00 ppm,0%
same,pest species against which it showed activity,[14],Dawson-hop aphid
same,pest species against which it showed activity,[15],European red mite
same,pest species against which it showed activity,[16],apple aphid
same,pest species against which it showed activity,[17],apple rust mite
same,pest species against which it showed activity,[18],bean aphid
same,pest species against which it showed activity,[19],cotton aphid
same,pest species against which it showed activity,[20],grape leafhopper
same,pest species against which it showed activity,[21],grape thrip
same,pest species against which it showed activity,[22],green cloverworm
same,pest species against which it showed activity,[23]; host apples,green peach aphid
same,pest species against which it showed activity,[23]; host sugar beet,green peach aphid
same,pest species against which it showed activity,[24],greenhouse thrip
same,pest species against which it showed activity,[25],mites
same,pest species against which it showed activity,[26]; host alfalfa (Lucerne),pea aphid
same,pest species against which it showed activity,"[26]; host pea, garden (English)",pea aphid
same,pest species against which it showed activity,[27],potato leaf hopper
same,pest species against which it showed activity,[28],rosy apple aphid
same,pest species against which it showed activity,[29],tarnished plant bug
same,pest species against which it showed activity,[30],thrip
same,pest species against which it showed activity,[31],twospotted spider mite
same,pest species against which it showed activity,[32],wheat aphid
same,pest species against which it showed activity,[33],white apple leafhopper
same,pest species against which it showed activity,[34],yellow hickory aphid
